Values joined by “and” are separate entries in the source; they are usually repeats but may differ in a detail not shown here. Equal values may be shown once.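 In this assay, cells in 96-well plates receive the compound at five concentrations for 48 hours. Endpoints are linearly interpolated between the surrounding concentrations. TGI is the concentration that stops growth completely.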
Key:
Assay in all cases: DTP human tumour cell line panel, 48 h
NCI-H460 lung = test system: NCI-H460 lung
SF-295 CNS = test system: SF-295 CNS
UO-31 renal = test system: UO-31 renal
KM12 colon = test system: KM12 colon
CCRF-CEM leukemia = test system: CCRF-CEM leukemia
HCT-116 colon = test system: HCT-116 colon
HOP-62 NSCLC = test system: HOP-62 NSCLC
SNB-19 CNS = test system: SNB-19 CNS
SK-OV-3 ovarian = test system: SK-OV-3 ovarian
PC-3 prostate = test system: PC-3 prostate

| SMILES | TGI (NCI-H460 lung) | TGI (SF-295 CNS) | TGI (UO-31 renal) | TGI (KM12 colon) | TGI (CCRF-CEM leukemia) | TGI (HCT-116 colon) | TGI (HOP-62 NSCLC) | TGI (SNB-19 CNS) | TGI (SK-OV-3 ovarian) | TGI (PC-3 prostate) |
| --- | --- | --- | --- | --- | --- | --- | --- | --- | --- | --- |
| CCOC(=O)C1CCC(=O)N1C(=O)c1ccc(Cl)cc1 (configuration not stated) | > 100 µM | > 100 µM | > 100 µM | > 100 µM | > 100 µM | > 100 µM | > 100 µM | > 100 µM |  |  |
| C(=C\c1c2oc(-c3ccccc3)cc(-c3ccccc3)c-2c2ccccc12)/C=C1\c2ccccc2-c2c(-c3ccccc3)cc(-c3ccccc3)[o+]c21 | > 100 µM | > 100 µM | > 100 µM |  | > 100 µM | > 100 µM | > 100 µM | > 100 µM | > 100 µM |  |
| COc1ccc(/C=N/Nc2nnc3c(n2)c2ccccc2c2nn(-c4ccccc4Cl)nc23)cc1 |  | > 100 µM | > 100 µM | > 100 µM | > 100 µM | > 100 µM | > 100 µM | > 100 µM | > 100 µM | > 100 µM |
| O=C(c1ccccc1)c1cc(Cl)ccc1NCn1nnc2ccccc21 | > 100 µM | > 100 µM | > 100 µM | > 100 µM | > 100 µM |  | > 100 µM | > 100 µM | > 100 µM |  |
| CC(=O)N[C@@H](Cc1ccc(O)cn1)C(=O)NC1CCCCC1 |  | > 100 µM | > 100 µM | > 100 µM | > 100 µM | > 100 µM | > 100 µM | > 100 µM | > 100 µM | > 100 µM |
| COC(=O)C(NC(=O)c1ccccc1)C(c1c(O)cc(O)cc1O)P(=O)(OC)OC (configuration not stated) | > 100 µM | > 100 µM | > 100 µM | > 100 µM | > 100 µM | > 100 µM | > 100 µM | > 100 µM | > 100 µM |  |
| CCOC(=O)C1C(c2ccc(OC)cc2)c2c([nH]n(-c3ccccc3)c2=O)CC1(C)O (configuration not stated) | > 100 µM | > 100 µM | > 100 µM | > 100 µM | 35.6 µM | > 100 µM | > 100 µM | > 100 µM |  | > 100 µM |
| CC(=O)O[C@H]1C(=O)[C@@]2(C)[C@H]([C@H](OC(=O)c3ccco3)[C@]3(O)C[C@H](OC(=O)[C@H](O)[C@@H](NC(=O)c4ccccc4)c4ccccc4)C(C)=C1C3(C)C)[C@]1(OC(C)=O)CO[C@@H]1C[C@@H]2O | > 13 µM | > 19.7 µM | > 25 µM | > 25 µM | 0.837 µM |  | > 25 µM | > 25 µM | 10 µM | > 23.5 µM |
| Cc1ccc(-n2cc(-c3ccc(Cl)cc3)c3c(=N)n(N)cnc32)cc1 | 22.2 µM | 28.8 µM | 24 µM |  | 51.4 µM | 20.3 µM | 27.4 µM | 24.4 µM | 31.5 µM | 19.4 µM |
| C[n+]1c(-c2ccc(/C=N/NC(=O)C(=O)N/N=C/c3ccc(-c4cn5ccccc5[n+]4C)cc3)cc2)cn2ccccc21 | > 100 µM |  | > 100 µM | > 100 µM | > 100 µM |  | > 100 µM | > 100 µM | > 100 µM | > 100 µM |
| CCC(=C/[C@H](C)C/C=C/C(C)=C/[C@@H](C)C(=O)[C@@H](C)[C@H](O)[C@@H](C)CC)/C=C/[C@H]1CC=CC(=O)O1 | 1.26 µM and 1.64 µM | 1.48 µM and 13.8 µM |  |  | 0.179 µM | 0.002 µM | 2.05 µM and 13 µM | 2.11 µM and 14 µM | 3.28 µM and 18.6 µM | 1.45 µM and 11.5 µM |
| Cn1c(NC(=O)NC23CC4CC(CC(C4)C2)C3)nc2ccccc21 | > 100 µM | 52.3 µM | > 100 µM | > 100 µM |  | > 100 µM | > 100 µM | > 100 µM | 51.8 µM |  |
